Reference: PubChem BioAssay (NCI)
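Grown in 96-well plates, cells were treated for 48 hours with each compound at five concentrations. Insufficient inhibition: endpoint recorded as highest concentration tested. At the GI50, growth is halved. TGI is the concentration that stops growth completely.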

Experiments:
Assay in all cases: DTP human tumour cell line panel, 48 h
MDA-MB-435 = tested on: MDA-MB-435
MDA-MB-231 breast = tested on: MDA-MB-231 breast
786-0 renal = tested on: 786-0 renal
OVCAR-5 ovarian = tested on: OVCAR-5 ovarian
OVCAR-8 ovarian = tested on: OVCAR-8 ovarian
MCF7 breast = tested on: MCF7 breast
MOLT-4 leukemia = tested on: MOLT-4 leukemia
NCI-H226 lung = tested on: NCI-H226 lung
SK-MEL-28 melanoma = tested on: SK-MEL-28 melanoma
HCT-116 colon = tested on: HCT-116 colon
UACC-62 melanoma = tested on: UACC-62 melanoma
NCI-H460 lung = tested on: NCI-H460 lung
M14 melanoma = tested on: M14 melanoma
T-47D breast = tested on: T-47D breast
SK-OV-3 ovarian = tested on: SK-OV-3 ovarian
EKVX NSCLC = tested on: EKVX NSCLC
HS 578T breast = tested on: HS 578T breast
A549 NSCLC = tested on: A549 NSCLC
DU-145 prostate = tested on: DU-145 prostate
HCT-15 colon = tested on: HCT-15 colon
HL-60(TB) leukemia = tested on: HL-60(TB) leukemia
UO-31 renal = tested on: UO-31 renal
NCI-H522 lung = tested on: NCI-H522 lung
SF-295 CNS = tested on: SF-295 CNS
SW-620 colon = tested on: SW-620 colon
BT-549 breast = tested on: BT-549 breast
LOX IMVI melanoma = tested on: LOX IMVI melanoma
MALME-3M melanoma = tested on: MALME-3M melanoma

CN1CCN(C(=O)[C@@]2(C)CC[C@]3(C)CC[C@]4(C)C(=CC[C@@H]5[C@@]6(C)CC[C@H](OC(=O)c7cccnc7)C(C)(C)[C@@H]6CC[C@]54C)[C@@H]3C2)CC1
GI50 (MDA-MB-435): 1700 nM
TGI (MDA-MB-435): 3190 nM
GI50 (MDA-MB-231 breast): 2030 nM
TGI (MDA-MB-231 breast): 3950 nM
GI50 (786-0 renal): 1750 nM
TGI (786-0 renal): 3220 nM
GI50 (OVCAR-5 ovarian): 1690 nM
TGI (OVCAR-5 ovarian): 3420 nM
GI50 (OVCAR-8 ovarian): 2060 nM
TGI (OVCAR-8 ovarian): 4300 nM
GI50 (MCF7 breast): 1490 nM
TGI (MCF7 breast): 3170 nM
GI50 (MOLT-4 leukemia): 1920 nM
TGI (MOLT-4 leukemia): 4780 nM
GI50 (NCI-H226 lung): 10200 nM
TGI (NCI-H226 lung): 24000 nM
GI50 (SK-MEL-28 melanoma): 1790 nM
TGI (SK-MEL-28 melanoma): 3340 nM
GI50 (HCT-116 colon): 1480 nM
TGI (HCT-116 colon): 2870 nM
GI50 (UACC-62 melanoma): 1840 nM
TGI (UACC-62 melanoma): 3460 nM
GI50 (NCI-H460 lung): 1780 nM
TGI (NCI-H460 lung): 3330 nM
GI50 (M14 melanoma): 1620 nM
TGI (M14 melanoma): 3100 nM
GI50 (T-47D breast): 3120 nM
TGI (T-47D breast): 17000 nM
GI50 (SK-OV-3 ovarian): 10400 nM
TGI (SK-OV-3 ovarian): 22000 nM
GI50 (EKVX NSCLC): 1740 nM
TGI (EKVX NSCLC): 3860 nM
GI50 (HS 578T breast): 1450 nM
TGI (HS 578T breast): 3140 nM
GI50 (A549 NSCLC): 1710 nM
TGI (A549 NSCLC): 3280 nM
GI50 (DU-145 prostate): 1810 nM
TGI (DU-145 prostate): 3510 nM
GI50 (HCT-15 colon): 1400 nM
TGI (HCT-15 colon): 2800 nM
GI50 (HL-60(TB) leukemia): 1440 nM
TGI (HL-60(TB) leukemia): 3360 nM
GI50 (UO-31 renal): 1430 nM
TGI (UO-31 renal): 2860 nM
GI50 (NCI-H522 lung): 1950 nM
TGI (NCI-H522 lung): 4170 nM
GI50 (SF-295 CNS): 1620 nM
TGI (SF-295 CNS): 3050 nM
GI50 (SW-620 colon): 1790 nM
TGI (SW-620 colon): 3590 nM
GI50 (BT-549 breast): 1700 nM
TGI (BT-549 breast): 3490 nM
GI50 (LOX IMVI melanoma): 1650 nM
TGI (LOX IMVI melanoma): 3060 nM
GI50 (MALME-3M melanoma): 1780 nM
TGI (MALME-3M melanoma): 3540 nM
